Results from patent US11925629B2, “Heterocyclic inhibitors of ERK1 and ERK2 and their use in the treatment of cancer” (Asana Biosciences, LLC, priority 2015, dated 2024).
Like-named read-outs stand apart in the source and are kept apart here.

Assays:
Format in all cases: cell-based, human
[1] = test system: HCT116 (colorectal carcinoma, K Ras G13D) cells; assay: Cell proliferation (Alamar Blue) assay, HCT116; conditions: Homo sapiens, HCT-116, HCT116 cells
Summary of the method: (§1)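 5000 cells/well, 16-24 h attach; cpd 0.0005-10 uM (3-fold dilns) x 72 h, 37° C./5% CO2; Alamar Blue 1× 1-3 h; fluor 540/590 nm; IC50, variable-slope sigmoid.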

[2] = test system: HT-29 (colorectal carcinoma, B-RafV600E) cells; assay: Cell proliferation (Alamar Blue) assay, HT-29; conditions: Homo sapiens, HT-29, HT29 cells
Summary of the method: as §1

[3] = test system: phosphorylation of RSK1(S380) (the downstream target of ERK1/2); assay: Phospho-RSK1(S380) ELISA assay in HT-29 cells; conditions: Homo sapiens, HT-29, HT29 cells, read-out: Mechanistic Cell Assay RSK1 Phos HT29 IC50
Summary of the method: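 HT-29 colorectal carcinoma cells (B-RafV600E), plated overnight at 37° C./5% CO2, were treated with compound dilutions for 2 h. Lysates were analysed by phospho-RSK1(Ser380) sandwich ELISA with absorbance at 450 nm. IC50 came from a sigmoidal variable-slope dose-response fit.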

Structure (SMILES)	IC50 [1]	IC50 [2]	IC50 ([3]; phospho-RSK1(S380))	IC50 [3]
Cc1cnc(NC2CCCCC2O)nc1-n1ccc(C(=O)NC(CO)c2ccc(F)c(Cl)c2)c1 (stereo not drawn) [Example 202, N-(1-(3-chloro-4-fluorophenyl)-2-hydroxyethyl)-1-(2-((2-hydroxycyclohexyl)amino)-5-methylpyrimidin-4-yl)-1H-pyrrole-3-carboxamide]	> 2500 nM	500 to 2500 nM	> 2500 nM	
Cc1cnc(N[C@H]2CCOC2)nc1-n1ccc(C(=O)NC(CO)c2ccc(F)cc2)c1 (stereo partly drawn) [Example 204, N-(1-(4-fluorophenyl)-2-hydroxyethyl)-1-(5-methyl-2-(((S)-tetrahydrofuran-3-yl)amino)pyrimidin-4-yl)-1H-pyrrole-3-carboxamide]	> 2500 nM	500 to 2500 nM	500 to 2500 nM	
Cc1cnc(Nc2ccc(N3CCOCC3)cc2)nc1-n1ccc(C(=O)NC(CO)c2cccc(Cl)c2)c1 (stereo not drawn) [Example 205, N-(1-(3-chlorophenyl)-2-hydroxyethyl)-1-(5-methyl-2-((4-morpholinophenyl)amino)pyrimidin-4-yl)-1H-pyrrole-3-carboxamide]	250 to 500 nM	100 to 250 nM	100 to 250 nM	
NCC(NC(=O)c1ccn(-c2ccnc(Nc3ccc(F)cc3)c2)c1)c1ccccc1 (stereo not drawn) [Example 206, N-(2-amino-1-phenylethyl)-1-(2-((4-fluorophenyl)amino)pyridin-4-yl)-1H-pyrrole-3-carboxamide]	> 2500 nM	500 to 2500 nM	500 to 2500 nM	
Cc1cccc([C@@H](CO)NC(=O)c2ccn(-c3nc(N[C@H]4CCOC4)ncc3C)c2)n1 [Example 207, N-((S)-2-hydroxy-1-(6-methylpyridin-2-yl)ethyl)-1-(5-methyl-2-(((S)-tetrahydrofuran-3-yl)amino)pyrimidin-4-yl)-1H-pyrrole-3-carboxamide]	> 2500 nM	250 to 500 nM	500 to 2500 nM	
Cc1cnc(N[C@H]2CCOC2)nc1-n1ccc(C(=O)N(C)C(CO)c2cccc(Cl)c2)c1 (stereo partly drawn) [Example 212, N-(1-(3-chlorophenyl)-2-hydroxyethyl)-N-methyl-1-(5-methyl-2-(((S)-tetrahydrofuran-3-yl)amino)pyrimidin-4-yl)-1H-pyrrole-3-carboxamide]	> 2500 nM	500 to 2500 nM	500 to 2500 nM	
Cc1cnc(Nc2ccc(F)c(N3CCNCC3)c2)nc1-n1ccc(C(=O)NC(CO)c2cccc(Cl)c2)c1 (stereo not drawn) [Example 213, N-(1-(3-chlorophenyl)-2-hydroxyethyl)-1-(2-((4-fluoro-3-(piperazin-1-yl)phenyl)amino)-5-methylpyrimidin-4-yl)-1H-pyrrole-3-carboxamide]	250 to 500 nM	100 to 250 nM	250 to 500 nM	
Cc1cnc(NC2CCNCC2)nc1-n1cnc(C(=O)NC(CO)c2cccc(Cl)c2)c1 (stereo not drawn) [Example 214, N-(1-(3-chlorophenyl)-2-hydroxyethyl)-1-(5-methyl-2-(piperidin-4-ylamino)pyrimidin-4-yl)-1H-imidazole-4-carboxamide]	> 2500 nM	> 2500 nM	> 2500 nM	
Cc1cnc(Nc2ccc(C3CCNCC3)cc2)nc1-n1ccc(C(=O)NC(CO)c2cccc(Cl)c2)c1 (stereo not drawn) [Example 215, N-(1-(3-chlorophenyl)-2-hydroxyethyl)-1-(5-methyl-2-((4-(piperidin-4-yl)phenyl)amino)pyrimidin-4-yl)-1H-pyrrole-3-carboxamide]	> 2500 nM	250 to 500 nM	500 to 2500 nM	
Cc1cnc(Nc2ccc(C3CCNCC3)c(F)c2)nc1-n1ccc(C(=O)NC(CO)c2cccc(Cl)c2)c1 (stereo not drawn) [Example 216, N-(1-(3-chlorophenyl)-2-hydroxyethyl)-1-(2-((3-fluoro-4-(piperidin-4-yl)phenyl)amino)-5-methylpyrimidin-4-yl)-1H-pyrrole-3-carboxamide]	500 to 2500 nM	250 to 500 nM	500 to 2500 nM	
CC[C@@H](CO)Nc1ncc(C)c(-n2ccc(C(=O)N[C@H](CO)c3cccc(Cl)c3)c2)n1 [Example 219, N-((S)-1-(3-chlorophenyl)-2-hydroxyethyl)-1-(2-(((S)-1-hydroxybutan-2-yl)amino)-5-methylpyrimidin-4-yl)-1H-pyrrole-3-carboxamide]	500 to 2500 nM	100 to 250 nM	250 to 500 nM	
CC[C@@H](CO)Nc1ncc(C)c(-n2cnc(C(=O)N[C@H](CO)c3cccc(Cl)c3)c2)n1 [Example 220, N-((S)-1-(3-chlorophenyl)-2-hydroxyethyl)-1-(2-(((S)-1-hydroxybutan-2-yl)amino)-5-methylpyrimidin-4-yl)-1H-imidazole-4-carboxamide]	500 to 2500 nM	100 to 250 nM	250 to 500 nM	
Cc1cnc(N[C@H]2CCOC2)nc1-n1cnc(C(=O)NCc2cccc(Cl)c2CO)c1 [Example 270]	≤ 100 nM	≤ 100 nM	100 to 250 nM	
Cc1cnc(NC2CCOCC2)nc1-n1cnc(C(=O)N[C@@H](CN)c2cc(F)cc(Cl)c2)c1 [Example 276, (R)-N-(2-amino-1-(3-chloro-5-fluorophenyl)ethyl)-1-(5-methyl-2-((tetrahydro-2H-pyran-4-yl)amino)pyrimidin-4-yl)-1H-imidazole-4-carboxamide]	500 to 2500 nM	250 to 500 nM	100 to 250 nM	
Cc1cnc(Nc2ccnn2C)nc1-n1cnc(C(=O)N[C@H](CO)c2cccc(Cl)c2)c1 [Example 277, (S)-N-(1-(3-chlorophenyl)-2-hydroxyethyl)-1-(5-methyl-2-((1-methyl-1H-pyrazol-5-yl)amino)pyrimidin-4-yl)-1H-imidazole-4-carboxamide]	250 to 500 nM	250 to 500 nM	500 to 2500 nM	
Cc1cnc(Nc2ccnn2C)nc1-n1cnc(C(=O)N[C@H](CN)c2cccc(Cl)c2)c1 [Example 280, (S)-N-(2-amino-1-(3-chlorophenyl)ethyl)-1-(5-methyl-2-((1-methyl-1H-pyrazol-5-yl)amino)pyrimidin-4-yl)-1H-imidazole-4-carboxamide]	≤ 100 nM	≤ 100 nM	≤ 100 nM	
Cc1cnc(NC2CCOCC2)nc1-n1cnc(C(=O)NCc2nccs2)c1 [Example 281, 1-(5-methyl-2-((tetrahydro-2H-pyran-4-yl)amino)pyrimidin-4-yl)-N-(thiazol-2-ylmethyl)-1H-imidazole-4-carboxamide]	> 2500 nM	500 to 2500 nM	100 to 250 nM	
Cc1cnc(NC2CCOCC2)nc1-n1cnc(C(=O)NCc2ccccc2CN)c1 [Example 283, N-(2-(aminomethyl)benzyl)-1-(5-methyl-2-((tetrahydro-2H-pyran-4-yl)amino)pyrimidin-4-yl)-1H-imidazole-4-carboxamide]	> 2500 nM	500 to 2500 nM	500 to 2500 nM	
Cc1cnc(NC2CCOCC2)nc1-n1cnc(C(=O)NCc2sccc2CO)c1 [Example 284, N-((3-(hydroxymethyl)thiophen-2-yl)methyl)-1-(5-methyl-2-((tetrahydro-2H-pyran-4-yl)amino)pyrimidin-4-yl)-1H-imidazole-4-carboxamide]	500 to 2500 nM	250 to 500 nM	500 to 2500 nM	
Cc1cnc(NC2CCOCC2)nc1-n1cnc(C(=O)NCc2cccc(Cl)c2CN)c1 [Example 285, N-(2-(aminomethyl)-3-chlorobenzyl)-1-(5-methyl-2-((tetrahydro-2H-pyran-4-yl)amino)pyrimidin-4-yl)-1H-imidazole-4-carboxamide]	100 to 250 nM	≤ 100 nM	≤ 100 nM	
Cc1cnc(NC2CCC(F)(F)CC2)nc1-n1cnc(C(=O)N[C@H](CN)c2cccc(Cl)c2)c1 [Example 286, (S)-N-(2-amino-1-(3-chlorophenyl)ethyl)-1-(2-((4,4-difluorocyclohexyl)amino)-5-methylpyrmidin-4-yl)-1H-imidazole-4-carboxamide]	≤ 100 nM	≤ 100 nM	≤ 100 nM	
Cc1cnc(NC2CCOCC2)nc1-n1cnc(C(=O)NCc2ccccc2CO)c1 [Example 287, N-(2-(hydroxymethyl)benzyl)-1-(5-methyl-2-((tetrahydro-2H-pyran-4-yl)amino)pyrimidin-4-yl)-1H-imidazole-4-carboxamide]	250 to 500 nM	≤ 100 nM	500 to 2500 nM	
Cc1cnc(NC2CC(F)(F)C2)nc1-n1cnc(C(=O)N[C@H](CN)c2cc(F)cc(Cl)c2)c1 [Example 288, (S)-N-(2-amino-1-(3-chloro-5-fluorophenyl)ethyl)-1-(2-((3,3-difluorocyclobutyl)amino)-5-methylpyrimidin-4-yl)-1H-imidazole-4-carboxamide]	≤ 100 nM	≤ 100 nM	100 to 250 nM	
Cc1cnc(NC2CCOCC2)nc1-n1cnc(C(=O)N[C@H](CNCc2ccc[nH]2)c2cccc(Cl)c2)c1 [Example 306, (S)-N-(2-(((1H-pyrrol-2-yl)methyl)amino)-1-(3-chlorophenyl)ethyl)-1-(5-methyl-2-((tetrahydro-2H-pyran-4-yl)amino)pyrimidin-4-yl)-1H-imidazole-4-carboxamide]	≤ 100 nM	≤ 100 nM	100 to 250 nM	
Cc1cnc(NC2CCOCC2)nc1-n1cnc(C(=O)N[C@H](CNC2CCOCC2)c2cccc(Cl)c2)c1 [Example 308, (S)-N-(1-(3-chlorophenyl)-2-((tetrahydro-2H-pyran-4-yl)amino)ethyl)-1-(5-methyl-2-((tetrahydro-2H-pyran-4-yl)amino)pyrimidin-4-yl)-1H-imidazole-4-carboxamide]	250 to 500 nM	> 2500 nM		500 to 2500 nM
